{"source": "paper PMC11694556", "about": "(Proteins, 2024)", "assay_type_in_all_cases": "binding", "key": {"[1]": {"biological_target": "T1, cypin (cytosolic PSD-95 interactor; guanine deaminase) (Rattus norvegicus, UniProt Q9WTT6)", "T1 construct": "gene Gda", "T1 sequence (Q9WTT6 1-454)": "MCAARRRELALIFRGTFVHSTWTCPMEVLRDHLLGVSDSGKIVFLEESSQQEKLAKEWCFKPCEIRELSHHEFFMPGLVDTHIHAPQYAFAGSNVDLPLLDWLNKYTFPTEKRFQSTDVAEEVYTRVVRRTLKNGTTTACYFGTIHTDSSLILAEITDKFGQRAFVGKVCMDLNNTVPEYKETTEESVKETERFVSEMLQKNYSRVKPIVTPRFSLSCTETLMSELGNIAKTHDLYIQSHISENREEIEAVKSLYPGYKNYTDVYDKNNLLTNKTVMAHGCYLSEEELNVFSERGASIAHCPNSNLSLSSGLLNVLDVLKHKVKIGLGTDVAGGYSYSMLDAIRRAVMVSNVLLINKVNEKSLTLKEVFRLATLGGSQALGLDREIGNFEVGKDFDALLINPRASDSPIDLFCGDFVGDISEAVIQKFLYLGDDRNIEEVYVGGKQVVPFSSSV", "assay": "intrinsic tryptophan fluorescence quenching (Hill fit); also Amplex Red coupled xanthine oxidase/uricase assay"}, "[2]": {"biological_target": "T1, cypin (cytosolic PSD-95 interactor; guanine deaminase)", "assay": "intrinsic tryptophan fluorescence quenching; also NADH-coupled deaminase assay (Km […])"}, "[3]": {"biological_target": "T1, cypin (cytosolic PSD-95 interactor; guanine deaminase)", "assay": "intrinsic tryptophan fluorescence quenching; also NADH-coupled assay (Km […]) and LC-MS of deaminated product"}}, "note": "pKd: −log10 of the molar value.", "data": [{"smiles": "Nc1nc2c(ncn2COCCO)c(=O)[nH]1", "note": "[acyclovir]", "values": [{"measurement": "pKd", "setting": "[1]", "value": 3.64}]}, {"smiles": "Nc1nc2nc[nH]c2c(=O)[nH]1", "note": "[guanine]", "values": [{"measurement": "pKd", "setting": "[2]", "value": 6.22}]}, {"smiles": "CC(C)[C@H](N)C(=O)OCCOCn1cnc2c(=O)[nH]c(N)nc21", "note": "[valacyclovir]", "values": [{"measurement": "pKd", "setting": "[3]", "value": 4.13}]}]}
